Like-named read-outs stand apart in the source and are kept apart here.
Columns and labels:
[1] = rcm bond, 16-membered ring, DCM, 50.0 °C
[2] = from C=CCOc1ccc(C[C@H](NC(=O)c2ccccc2OCC=C)C(=O)NC2(C#N)CC2)cc1; rcm bond; 16-membered ring; Grubbs II (0.3 eq); DCM; 2.88 mM; 50.0 °C
Cathepsin L = Cathepsin L (Homo sapiens (Human), UniProt P07711); assay: Cathepsin enzyme inhibition assay (fluorogenic peptide substrate Z-Val-Val-Arg-AMC); type: biochemical; conditions: enzyme 1 nM, substrate 20 μM, pH 6.5
Sequence of Cathepsin L (P07711 114-333): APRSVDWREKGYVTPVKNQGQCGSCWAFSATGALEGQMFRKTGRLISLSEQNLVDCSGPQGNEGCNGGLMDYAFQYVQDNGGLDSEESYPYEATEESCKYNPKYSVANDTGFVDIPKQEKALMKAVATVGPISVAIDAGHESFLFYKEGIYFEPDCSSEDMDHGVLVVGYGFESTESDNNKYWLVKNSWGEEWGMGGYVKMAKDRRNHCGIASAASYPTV
Protocol: Enzyme activity is measured by observing the increase in fluorescence intensity caused by cleavage of a peptide substrate containing a fluorophore whose emission is quenched in the intact peptide.
Assay buffer: 100 mM potassium phosphate pH 6.5, EDTA-Na 5 mM, Triton X-100 0.001%, DDT 5 mM.
Enzymes (all at 1 nM): human and mouse Cathepsin S, Cat K, Cat B, Cat L
Substrate (20 μM): Z-Val-Val-Arg-AMC, except for Cat K which uses Z-Leu-Arg-AMC (both from Bachem).
AMC=7-Amino-4-Methyl-Coumarin.
Excitation 360 nm, Emission 465 nm.
Enzyme is added to the substance dilutions in 96-well microtitre plates and the reaction is started with substrate. […] IC50 are calculated by standard methods. The results are expressed in μM in the following table.

Compound | IC50 (Cathepsin L) [nM] | other results
COC(=O)[C@@H]1Cc2ccc(c(Cl)c2)OC/C=C/CCN2CCCC2C(=O)N1 (stereo partly shown) | – | ring closure, isolated yield ([1]; from C=CCCN1CCC[C@H]1C(=O)N[C@@H](Cc1ccc(OCC=C)c(Cl)c1)C(=O)OC, Grubbs II (0.3 eq)/pTsOH (2 eq, in AcOH), 2.64 mM): 87%
COC(=O)[C@@H]1Cc2ccc(c(Cl)c2)OC/C=C/COc2ccccc2C(=O)N1 | – | ring closure, isolated yield ([1]; from C=CCOc1ccc(C[C@H](NC(=O)c2ccccc2OCC=C)C(=O)OC)cc1Cl, Grubbs II (0.3 eq), 2.76 mM): 47%
N#CC1(NC(=O)[C@@H]2Cc3ccc(c(Cl)c3)OCC=CCOc3ccc(Br)cc3C(=O)N2)CC1 | – | ring closure, isolated yield ([1]; from C=CCOc1ccc(C[C@H](NC(=O)c2cc(Br)ccc2OCC=C)C(=O)NC2(C#N)CC2)cc1Cl, Grubbs II (0.3 eq), 2.15 mM): 53%
N#CC1(NC(=O)[C@@H]2Cc3ccc(cc3)OC/C=C/COc3ccccc3C(=O)N2)CC1 [Example 1, (E)-(S)-5-Oxo-12,17-dioxa-4-aza-tricyclo[16.2.2.0*6,11*]docosa-1(21),6(11),7,9,14,18(22),19-heptaene-3-carboxylic acid (1-cyano-cyclopropyl)-amide] | 88.5 | ring closure, yield after HPLC [2]: 20%
COc1ccc2c(c1)CC/C=C/COc1ccc(cc1Cl)C[C@@H](C(=O)NC1(C#N)CC1)NC2=O [Example 18, (E)-(S)-19-Chloro-9-methoxy-5-oxo-17-oxa-4-aza-tricyclo[16.2.2.0*6,11*]docosa-1(21),6,8,10,14,18(22),19-heptaene-3-carboxylic acid (1-cyano-cyclopropyl)-amide] | 54.7 | ring closure, isolated yield ([1]; Grubbs II): 48%
Cc1ccc2c(n1)SC/C=C/COc1ccc(cc1Cl)C[C@@H](C(=O)NC1(C#N)CC1)NC2=O [Example 19, (E)-(S)-19-Chloro-9-methyl-5-oxo-17-oxa-12-thia-4,10-diaza-tricyclo[16.2.2.0*6,11*]docosa-1(21),6,8,10,14,18(22),19-heptaene-3-carboxylic acid (1-cyano-cyclopropyl)-amide] | 26 | ring closure, isolated yield ([1]; from C=CCOc1ccc(C[C@H](NC(=O)c2ccc(C)nc2SCC=C)C(=O)NC2(C#N)CC2)cc1Cl, Grubbs II (0.3 eq)/Ti(OiPr)4 (0.6 eq), 1.15 mM): 6%
CC(C)(C)OC(=O)N1CC(c2ccc3c(c2)C(=O)N[C@H](C(=O)NC2(C#N)CC2)Cc2ccc(c(Cl)c2)OCCCCO3)C1 [Example 42, 3-[(S)-19-Chloro-3-(1-cyano-cyclopropylcarbamoyl)-5-oxo-12,17-dioxa-4-aza-tricyclo[16.2.2.0*6,11*]docosa-1(21),6,8,10,18(22),19-hexaen-8-yl]-azetidine-1-carboxylic acid tert-butyl ester] | 25.5 | –
N#CC1(NC(=O)[C@@H]2Cc3ccc(c(Cl)c3)OCCCCOc3ccc(C4CNC4)cc3C(=O)N2)CC1 [Example 43, (S)-8-Azetidin-3-yl-19-chloro-5-oxo-12,17-dioxa-4-aza-tricyclo[16.2.2.0*6,11*]docosa-1(21),6,8,10,18(22),19-hexaene-3-carboxylic acid (1-cyano-cyclopropyl)-amide] | 3.1 | –
N#CC1(NC(=O)[C@@H]2Cc3ccc(c(Cl)c3)OC/C=C/COc3c(F)cc(F)cc3C(=O)N2)CC1 [Example 44, (E-Z)—(S)-19-Chloro-8,10-difluoro-5-oxo-12,17-dioxa-4-aza-tricyclo[16.2.2.0*6,11*]docosa-1(21),6,8,10,14,18(22),19-heptaene-3-carboxylic acid (1-cyano-cyclopropyl)-amide] | 9.2 | –
N#CC1(NC(=O)[C@@H]2Cc3ccc(c(Cl)c3)OC/C=C/COc3ccc(F)c(F)c3C(=O)N2)CC1 [Example 45, (E)-(S)-19-Chloro-7,8-difluoro-5-oxo-12,17-dioxa-4-aza-tricyclo[16.2.2.0*6,11*]docosa-1(21),6,8,10,14,18(22),19-heptaene-3-carboxylic acid (1-cyano-cyclopropyl)-amide] | 4.3 | –
N#CC1(NC(=O)[C@@H]2Cc3ccc(c(Cl)c3)OC/C=C\COc3ccc(F)c(F)c3C(=O)N2)CC1 [Example 46, (Z)—(S)-19-Chloro-7,8-difluoro-5-oxo-12,17-dioxa-4-aza-tricyclo[16.2.2.0*6,11*]docosa-1(21),6,8,10,14,18(22),19-heptaene-3-carboxylic acid (1-cyano-cyclopropyl)-amide] | 54 | –
CSc1ccc2c(c1)C(=O)N[C@H](C(=O)NC1(C#N)CC1)Cc1ccc(c(Cl)c1)OC/C=C/CO2 [Example 47, (E)-(S)-19-Chloro-8-methylsulfanyl-5-oxo-12,17-dioxa-4-aza-tricyclo[16.2.2.0*6,11*]docosa-1(21),6,8,10,14,18(22),19-heptaene-3-carboxylic acid (1-cyano-cyclopropyl)-amide] | 1.6 | –
N#CC1(NC(=O)[C@@H]2Cc3ccc(c(Cl)c3)OC/C=C/COc3c(Cl)cc(F)cc3C(=O)N2)CC1 [Example 48, (E)-(S)-10,19-Dichloro-8-fluoro-5-oxo-12,17-dioxa-4-aza-tricyclo[16.2.2.0*6,11*]docosa-1(21),6,8,10,14,18(22),19-heptaene-3-carboxylic acid (1-cyano-cyclopropyl)-amide] | 139 | –
N#Cc1ccc2c(c1)C(=O)N[C@H](C(=O)NC1(C#N)CC1)Cc1ccc(c(Cl)c1)OCCCCO2 [Example 49, (S)-19-Chloro-8-cyano-5-oxo-12,17-dioxa-4-aza-tricyclo[16.2.2.0*6,11*]docosa-1(21),6,8,10,18(22),19-hexaene-3-carboxylic acid (1-cyano-cyclopropyl)-amide] | 18.3 | –
N#CC1(NC(=O)[C@@H]2Cc3ccc(c(Cl)c3)OCCCCOc3ccc(F)c(F)c3C(=O)N2)CC1 [Example 50, (S)-19-Chloro-7,8-difluoro-5-oxo-12,17-dioxa-4-aza-tricyclo[16.2.2.0*6,11*]docosa-1(21),6,8,10,18(22),19-hexaene-3-carboxylic acid (1-cyano-cyclopropyl)-amide] | 13.5 | –
CSc1ccc2c(c1)C(=O)N[C@H](C(=O)NC1(C#N)CC1)Cc1ccc(c(Cl)c1)OCCCCO2 [Example 51, (S)-19-Chloro-8-methylsulfanyl-5-oxo-12,17-dioxa-4-aza-tricyclo[16.2.2.0*6,11*]docosa-1(21),6,8,10,18(22),19-hexaene-3-carboxylic acid (1-cyano-cyclopropyl)-amide] | 1.6 | –
